Results: publication PMC12298391, “Novel Lung Cell-Penetrating Peptide Targets Alveolar Epithelial Type II Cells, Basal Cells, and Ionocytes” (Pharmaceutics, 2025)
Where a SMILES comes first, the peptide text is derived from it. The star is where a group is joined. X1 = CN1C(=CC=CC=CC2=[N+](CCCCCC(=O)*)c3ccc4ccccc4c3C2(C)C)C(C)(C)c2c1ccc1ccccc21

Columns and labels:
[1] = Serum stability in fetal bovine serum, mass spectrometry; type: in vitro ADME; conditions: 10 µg/mL, 37 °C/5% CO2, 0-360 min, acetonitrile precipitation, C-peptide internal standard, LC-MS full scan peak area, triplicate
Description: At the end of each incubation time point, the tubes were removed and placed on ice; 25 µL of 1 µM C-peptide as an internal standard was added to the tube and vigorously vortexed for 15 s, followed by the addition of 500 μL of acetonitrile to each tube, vortexing for 30 secs, and centrifugation at maximum speed in a tabletop centrifuge for 5 min at 4 °C. The clear supernatant was transferred to a new tube and analyzed using mass spectrophotometry. A full MS scan was performed from 600.0 to 725.0 m/z (mass/charge) without fragmentations in positive polarity at a resolution of 70,000 (the range option is 17,500–140,000). The maximum injection time was 200 msec. The gas flow rates in arbitrary units were as follows: 48 for sheath, 11 for auxiliary, and 3 for sweep. The spray voltage was 4.00 kV, with a spray current of 5.90µA, a capillary temperature of 320 °C, and an auxiliary gas temperature of 250 °C with the S-lens Radio Frequency (RF) set to 50 (arbitrary units from 0 to 100). […] Intensities were quantified as the peak area containing all ion species within the specified m/+2 range. Then, 20 µL of the sample was injected onto an Eclipse Plus C18 column (1.8 um; 2.1 × 50 mm) at 45 °C at a rate of 0.3 mL/min and eluted with a gradient of acetonitrile (in 0.1% formic acid) using water in 0.1% formic acid as the aqueous phase. […]

[2] = mouse, in vivo, iv, 5 mg/kg
Description: (§1) Wild-type, 6-week-old, CD1 (Charles Rivers, Wilmington, MA, USA; Cat #022) mice were weighed and anesthetized with an intraperitoneal injection of a 1:1 cocktail of Ketamine–Xylazine at 1–2 μL/gm body weight, followed by intravenous injection with Cy5.5-labeled peptides that were allowed to circulate for various time points. At the end of the circulation times, the mice were euthanized using inhalational CO2, their chest cavity was opened, their right atrium nicked and 3–5 mL of 10% formalin was injected through the left ventricular apex to perfusion-fix the animals. Various organs were harvested, rinsed once in PBS and imaged using an In Vivo Imaging System (IVIS; PerkinElmer Inc., Waltham, MA, USA) with identical instrument settings (stage position, exposure time, binning, F-stop, etc.). The organs were placed in 10% formalin at RT for 4 h, transferred to 15% sucrose at 4 °C overnight, followed by 30% sucrose at 4 °C overnight, before being embedded and cryo-sectioned at 6 μM thickness. The sections were cross-stained with various primary antibodies for ATII cells (ABCA3), basal cells (p63, KRT5), ionocytes (FOXI1), goblet cells (MUC5AC), ATI cells (HOPX), ciliated cells (acetylated tubulin), club cells (Uteroglobin), pulmonary endothelial cells (CD31), and airway smooth muscle cells (α-SMA) overnight at 4 °C. The sections were washed and incubated with Alexa-Fluor-488-conjugated secondary antibody at RT for 1 h. Additionally, kidney sections were stained with Lotus tetragonolobus Lectin-FITC (LTL-FITC) at RT for 1 h. All sections were then washed and mounted with DAPI, and confocal microscopy was performed. All peptides and time points were tested in triplicate (N = 3).

[3] = tested on: lung cell types of wild-type mice; assay: Confocal microscopy of lung sections of injected mice cross-stained with cell markers; type: in vivo, mouse; conditions: 10 mg/kg i.v., 15 min, N = 3
Description: Animal studies: All animal protocols were approved by the University of Pittsburgh and the Mayo Clinic’s Institutional Animal Care and Use Committee. Wild-type, 6-week-old, CD1 (Charles Rivers, Wilmington, MA, USA; Cat #022) mice were weighed and anesthetized with an intraperitoneal injection of a 1:1 cocktail of Ketamine–Xylazine at 1–2 μL/gm body weight, followed by intravenous injection with Cy5.5-labeled peptides that were allowed to circulate for various time points. At the end of the circulation times, the mice were euthanized using inhalational CO2, their chest cavity was opened, their right atrium nicked and 3–5 mL of 10% formalin was injected through the left ventricular apex to perfusion-fix the animals. Various organs were harvested, rinsed once in PBS and imaged using an In Vivo Imaging System (IVIS; PerkinElmer Inc., Waltham, MA, USA) with identical instrument settings (stage position, exposure time, binning, F-stop, etc.). The organs were placed in 10% formalin at RT for 4 h, transferred to 15% sucrose at 4 °C overnight, followed by 30% sucrose at 4 °C overnight, before being embedded and cryo-sectioned at 6 μM thickness. […]

[4] = tested on: human Cystic Fibrosis bronchial epithelial cells (CFBE41o-); assay: Transferrin uptake assay, colocalization with endocytosed Alexa-488 transferrin; type: cell-based; conditions: confocal; for Uptake by CFBE41o- cells over time: 4 °C, then 5 and 30 min at 37 °C; for Co-localization with endocytosed Alexa-488 transferrin: serum-starved cells, Cy5.5 peptides
Description: Endocytosis studies: In order to investigate the mechanism of cell entry, human bronchial epithelial cells (HBECs) were serum-starved overnight and subsequently treated with specific endocytic pathway inhibitors. […] At the end of the incubation period, the cells were washed, trypsinized, harvested, and fixed with 2% PFA for 10 min at room temperature (RT), followed by a single wash and resuspension in PBS, and they were subjected to FACS analysis. […] The cells were washed with cold PBS, incubated with Alexa-488-labeled transferrin on ice in a cold room, and incubated for an hour. At the end of incubation, Cy5.5-labeled random, linear or cyclic LTPs were added and transferred to 37 °C, and after each time point, the cells were washed and fixed in 4% PFA. The cells were stained with Hoechst and mounted for confocal imaging.
Figure 5 Cystic Fibrosis bronchial epithelial cells (CFBE41o-) uptake S7A and R11A without colocalization with endocytosed transferrin. CFBE41o- cells were serum-starved, followed by incubation with transferrin-488, or Cy5.5-labeled linear or cyclic Random, S7A, or R11A, followed by fixation at indicated time points, and confocal microscopy performed. […] (A). Linear peptide colocalization. (B). Cyclic peptide colocalization. (C). Quantification of relative fluorescence of cyclic peptides. ** p < 0.01, *** p < 0.001.

[5] = tested on: Human bronchial epithelial cells; assay: Confocal microscopy of peptide uptake by HBECs; type: cell-based; conditions: 10 μM Cy5.5 peptide, 2, 10 and 30 min, 37 °C
Description: Identification and biodistribution of lung-targeting peptides: Eleven “alanine mutant” versions of CTP were synthesized along with the 6 N-terminus CTP-A (APWHLS) and 6 C-terminus CTP-B (SQYSRT), along with CTP peptide as a standard comparison. H9C2 cells, a rat cardiomyoblast cell line, were incubated with 10 μM of the fluorescent peptides, and FACS was performed (Figure 1A). H9C2 cells were chosen because initial phage display studies that led to the identification of CTP were conducted in this cell line, and we had prior evidence of successful transduction of these cells with CTP, which we used as a reference for comparing the alanine mutants. […]. These were injected intravenously in wild-type CD1 mice at a dose of 10 mg/kg. Counter to our expectations, uptake in the heart was negligible. […]; Supplementary Figure S1). […]
Supplemental Figure S2: Human bronchial epithelial cells transduce robustly with LTPs.
Human bronchial epithelial cells were plated on cover slips and treated with 10μM of linear
3x with pre-warmed PBS, fixed, counterstained with DAPI and confocal microscopy
have a cytoplasmic, peri-nuclear localization. Random peptide has very little to no uptake.
(1 picture or pasted object on this page, not shown here)

wild-type CD1 mice = conditions: 15 min, N = 3; for Uptake in the heart: confocal
Description: as §1

[6] = tested on: SARS-CoV-2 (strain USA_WA1/2020); assay: microbe, parasite or virus in culture; type: cell-based; conditions: Severe acute respiratory syndrome coronavirus 2; HBEC inserts, air-liquid interface; treatment apical and basolateral 24 h prior to infection; MOI ~0.0015 CCID50 per cell; virus collected after 5 days, titrated on Vero 76; triplicate; read-out: EC90 (inhibition of viral replication)

Molecule | Serum stability [1] | tissue to tissue ratio at 0.25 h [2] | Uptake in AT2 and p63+ cells (confocal) compared with cR11A [3] | Uptake in ionocytes, AT-1, club, ciliated, goblet, endothelial and smooth muscle cells (confocal) [3] | Uptake by CFBE41o- cells over time [4] | Co-localization with endocytosed Alexa-488 transferrin [4] | Uptake by HBECs (confocal) [5] | Lung uptake at lowest dose (wild-type CD1 mice; 1 mg/kg i.v., ex vivo IVIS) | Uptake in the heart (wild-type CD1 mice; 10 mg/kg i.v., CD1 mice) | EC90 [6] [nM] | Lung uptake (wild-type CD1 mice; 10 mg/kg i.v., CD1 mice, confocal/IVIS)
CC(C)C[C@H](NC(=O)[C@H](Cc1c[nH]cn1)NC(=O)[C@H](Cc1c[nH]c2ccccc12)NC(=O)[C@@H]1CCCN1C(=O)[C@H](C)NC(=O)CCCCC[N+]1=C(C=CC=CC=C2N(C)c3ccc4ccccc4c3C2(C)C)C(C)(C)c2c1ccc1ccccc21)C(=O)N[C@@H](CO)C(=O)N[C@@H](CO)C(=O)N[C@@H](CCC(N)=O)C(=O)N[C@@H](Cc1ccc(O)cc1)C(=O)N[C@@H](CO)C(=O)N[C@@H](C)C(=O)N[C@H](C(N)=O)[C@@H](C)O [R11A] | susceptibility to immediate degradation upon exposure to serum | 8 | much lesser amounts | no uptake | increasing uptake at 5 and 30 min | did not show co-localization | taken up at 10 min with uptake increasing at 30 min | robust lung uptake | negligible | – | –
CCC(CC)COC(=O)[C@H](C)N[P@](=O)(OC[C@H]1O[C@@](C#N)(c2ccc3c(N)ncnn23)[C@H](O)[C@@H]1O)Oc1ccccc1 [Remdesivir] | – | – | – | – | – | – | – | – | – | 19 | –
CC(C)C[C@H](NC(=O)[C@H](Cc1c[nH]cn1)NC(=O)[C@H](Cc1c[nH]c2ccccc12)NC(=O)[C@@H]1CCCN1C(=O)[C@H](C)NC(=O)CCCCC[N+]1=C(C=CC=CC=C2N(C)c3ccc4ccccc4c3C2(C)C)C(C)(C)c2c1ccc1ccccc21)C(=O)N[C@@H](CO)C(=O)N[C@@H](C)C(=O)N[C@@H](CCC(N)=O)C(=O)N[C@@H](Cc1ccc(O)cc1)C(=O)N[C@@H](CO)C(=O)N[C@@H](CCCNC(=N)N)C(=O)N[C@H](C(N)=O)[C@@H](C)O [S7A] (X1-APWHLSAQYSRT-NH2; C-terminus assumed) | – | ~2.5 | – | – | increasing uptake at 5 and 30 min | did not show co-localization | taken up at 10 min with uptake increasing at 30 min | – | negligible | – | robust lung uptake
TALACYPHTVGQ [RAN, scrambled, random peptide […] used as control, reference compound] | – | – | – | – | – | – | no uptake | – | – | – | –
